Reference: US8937096B2, “Use of benzo-fused heterocyle sulfamide derivatives for the treatment of mania and bipolar disorder” (priority 2005, dated 2015)

Experiments:
[1] = tested on: hippocampal kindled seizures; assay: Rat Hippocampal Kindling Test (Interruption of Kindled State); type: in vivo; settings: reference drugs; suppression at doses associated with toxicity
Procedure: In the present rapid hippocampal kindling model adult male Sprague-Dawley rats (300-400 g) were surgically implanted with bipolar electrodes placed in the hippocampus. […] One week later, the rats received 2-3 supra-threshold stimulations delivered every 30 min before treatment with test compound, to ensure stability of the behavioral seizure stage and after-discharge duration. Fifteen minutes after the last stimulation, a single dose of vehicle or test compound was administered i.p. (intraperitoneally). After 15 min, each rat was then stimulated every 30 min for 3 to 4 h. After each stimulation, individual seizure scores and after-discharge durations were recorded. The group mean±SEM were calculated for each parameter. Eight rats per dose and a minimum of four doses were used to establish an ED50 value. Efficacy was measured as the ability of a compound to modify the seizure score (severity of spread) and after-discharge duration (ADD; excitability) of the generalized seizures.
Thus, according to the theories presented in current literature (Ghaemi, S. N., Boiman, E. E., and Goodwin, F. K., Soc. of Bio. Psychiatry, (1999), vol. 45, pp 137-144; Stoll, A. L., and Severus, W. E., Harvard Rev. Psychiatry, July/August (1996), Vol. 4, No. 2, pp 77-89) a decrease in seizure score and/or ADD may also be predictive of the ability of a test compound to treat the cycling associated with bipolar disorder.

[2] = Median toxic dose (TD50) / toxic doses of Compound #8 and reference drugs; settings: rat, in vivo
[3] = tested on: hippocampal kindled seizures; settings: rat, in vivo; cited from earlier work
[4] = tested on: amygdala kindled seizures; settings: i.p.; cited from earlier work
Wistar rats = assay: Chronic Mild Stress Model (Chronic); type: in vivo, rat; settings: stressed animals; i.p. once daily
Excerpt: In the chronic mild stress (CMS) model rats subjected to a variety of mild stressors for a prolonged period of time show, among other behavioral, biochemical and physiological impairments, a substantial decrease in their responsiveness to rewarding stimuli. This deficit is usually monitored by a decrease in the consumption of the 1% sucrose solution, but can also be seen in other tests, such as place preference conditioning or intracranial self-stimulation. Since the subsensitivity to reward appears to reflect anhedonia (inability to experience pleasure), which is a core symptom of major depressive disorders, the CMS procedure may serve as a suitable research tool in studies into the mechanisms of antidepressant action.
Male Wistar rats were brought into the laboratory two months before the start of the experiment. Except as described below, the animals were singly housed with food and water freely available, and were maintained on a 12-h light/dark and in a constant temperature (22±2° C.) and humidity (50±5%) conditions.
The animals were first trained to consume a 1% sucrose solution; training consisted of eight 1 h baseline tests in which sucrose was presented, in the home cage, following 14 h food and water deprivation; the sucrose intake was measured by weighing pre-weighed bottles containing the sucrose solution, at the end of the test. Subsequently, sucrose consumption was monitored, under similar conditions, at weekly intervals throughout the whole experiment.
On the basis of their sucrose intakes in the final baseline test, the animals were divided into two matched groups. One group of animals was subjected to the chronic mild stress procedure for a period of 7 consecutive weeks. […]
All results obtained in this study were analyzed by multiple analyses of variance with three between-subjects factors (stress/control, drug treatments and successive sucrose tests). […]

[5] = tested on: stressed and non-stressed animals; assay: Resident/Intruder Assay (Chronic Social Stress Assay); type: in vivo; parameters: Locomotor Mean ± SD / Rearing Mean ± SD / Sniffing Down Mean ± SD / Sniffing Up Mean ± SD: unit not given here; settings: 10 mg/kg p.o.
Excerpt: The behavioral resident/intruder assay is used to screen compounds for anti-depressant-like activity.

NS(=O)(=O)NCC1CCc2ccccc2O1 (centres unmarked)
melting point: 100 to 101 °C

CCCC(CCC)C(=O)O [Valproic acid, reference compound]
seizure activity in the hippocampal kindling model [1]: significantly suppressed seizure activity | toxic doses [2]: > 300 mg/kg

Nc1nnc(-c2cccc(Cl)c2Cl)c(N)n1 [lamotrigine]
protection against hippocampal kindled seizures [3]: unable to protect | ADD reduced by [4]: 62% | ED50 (amygdala kindled seizures) [4]: 25 mg/kg | amygdala kindled seizure score [4]: ~2

CCC1(C)CC(=O)NC1=O (centres unmarked) [Ethosuximide]
seizure activity in the hippocampal kindling model [1]: ineffective

CN(C)CCCN1c2ccccc2CCc2ccccc21 [Imipramine, imipramine, reference compound]
treatment time after which increases in sucrose intake in stressed animals reached statistical significance vs Week 0 (Wistar rats): four weeks | Forced Swim Test: Immobility during 5 min: Week 5 Mean ± SD ([5]; non-stressed): 125.3 ± 50.1 | Sucrose Intake Mean ± SD Week 3 ([5]; non-stressed): 87.9 ± 2.7 | Sucrose Intake Mean ± SD Week 4 ([5]; non-stressed): 89.7 ± 5.3 | Sucrose Intake Mean ± SD Week 5 ([5]; non-stressed): 91.0 ± 3.7 | Locomotor Mean ± SD ([5]; non-stressed, week 1): 8162.8 ± 929.9 | Rearing Mean ± SD ([5]; non-stressed, week 1): 51.5 ± 12.6 | Sniffing Down Mean ± SD ([5]; non-stressed, week 1): 25.8 ± 4.9 | Rearing Mean ± SD ([5]; non-stressed, week 5): 42.1 ± 2.9 | Sniffing Down Mean ± SD ([5]; non-stressed, week 5): 26.4 ± 5.2 | Sniffing Up Mean ± SD ([5]; non-stressed, week 5): 37.5 ± 2.1 | Forced Swim Test: Immobility during 5 min: Week 5 Mean ± SD ([5]; stressed): 157.5 ± 71.6 | Sucrose Intake Mean ± SD Week 3 ([5]; stressed): 70.5 ± 19.5 | Sucrose Intake Mean ± SD Week 4 ([5]; stressed): 78.3 ± 15.1 | Sucrose Intake Mean ± SD Week 5 ([5]; stressed): 73.6 ± 19.4 | Locomotor Mean ± SD ([5]; stressed, week 1): 6037.8 ± 1382.8 | Rearing Mean ± SD ([5]; stressed, week 1): 30 ± 9.5 | Sniffing Down Mean ± SD ([5]; stressed, week 1): 14.4 ± 4.4 | Sniffing Up Mean ± SD ([5]; stressed, week 1): 27.5 ± 7.9 | Locomotor Mean ± SD ([5]; stressed, week 5): 5642.8 ± 998.6 | Rearing Mean ± SD ([5]; stressed, week 5): 27.8 ± 7.4 | Sniffing Down Mean ± SD ([5]; stressed, week 5): 17.3 ± 3.4 | Sniffing Up Mean ± SD ([5]; stressed, week 5): 24.3 ± 5.1

O=C1NC(=O)C(c2ccccc2)(c2ccccc2)N1 [Phenytoin]
seizure activity in the hippocampal kindling model [1]: significantly suppressed seizure activity
